Test results as given in patent publication US20260283999A1, “STAT3 INHIBITOR TO TREAT SU[…]” (UNIVERSITY OF FLORIDA RESEARCH FOUNDATION, INCORPORATED, priority 2022, published 2026).

Assays:
SAH model [1] = experiment: Immunohistochemistry of brain slices after SAH (p-STAT3, Arg1, Cox2, iNOS, TLR-4); format: in vivo; conditions: mice, following SAH; 5 mg/kg on days 1, 2, and 3 following SAH
Experimental: (§1) Studies were conducted wherein repetitive dosing on days 1, 2, and 3 following SAH occurred with 5 mg/kg of the p-STAT3 inhibitor. […] The STAT inhibitor used in these studies was LLL12B.
The SAH model utilized modified autologous blood injection to basal cisterns adjacent to right anterior circulation. [Dodd W S, Noda I, Martinez M, Hosaka K, Hoh BL. NLRP3 inhibition attenuates early brain injury and delayed cerebral vasospasm after subarachnoid hemorrhage. J Neuroinflammation. 2021; 18 (1): 163.]. Briefly, mice we anesthetized with 10 mg/kg xylazine and 100 mg/kg ketamine prior to shaving/cleaning the scalp. The tail was prepped, shaved, and cleaned. The mouse's head was fixed to the stereotaxic frame and body temperature maintained at 37° C. using a heating pad. The scalp was incised along the sagittal suture from bregma to the nasal bone. The skin was reflected and held in place by retraction. The burr hole was positioned 5.0 mm rostral to bregma and 0.5 mm right of midline. Next, 150 μL of arterial blood was drawn from the tail artery. 50 μL of blood was drawn up into a Hamilton syringe. The syringe needle was passed at a 30° caudal angle until it reached the skull base. The syringe was left in place and blood was manually injected at a rate of 10 μL/min. The mouse's respiratory rate was closely monitored. […]

SAH model [2] = experiment: Cerebral blood flow by laser speckle perfusion imaging after SAH; format: in vivo; conditions: mice, 48 hours after SAH; 5 mg/kg repetitive dosing following SAH; FIG. 3
Experimental: as §1
The SAH model utilized modified autologous blood injection to basal cisterns adjacent to right anterior circulation. [Dodd W S, Noda I, Martinez M, Hosaka K, Hoh BL. NLRP3 inhibition attenuates early brain injury and delayed cerebral vasospasm after subarachnoid hemorrhage. J Neuroinflammation. 2021; 18 (1): 163.]. Briefly, mice we anesthetized with 10 mg/kg xylazine and 100 mg/kg ketamine prior to shaving/cleaning the scalp. The tail was prepped, shaved, and cleaned. The mouse's head was fixed to the stereotaxic frame and body temperature maintained at 37° C. using a heating pad. […] The mouse's respiratory rate was closely monitored. […]
Four mice per group were utilized. Cerebral blood flow was measured with a laser speckle perfusion imager at 48 hours after SAH. […] Sufficient readings were able to be achieved without bone flap removal. […] Average perfusion per animal was documented and an imaging voxel with a calculated mean of 9.7 was used to measure bilateral MCA territory perfusion. A ratio of right to left MCA perfusion was calculated for each animal to allow reliable comparisons between groups and to control for variance in baseline blood pressure differences. […]

**Q.** Which results are given for `CN(C)C(=O)Oc1cccc2c1C(=O)c1cccc(S(N)(=O)=O)c1C2=O` [LLL12B]?
**A.** systemic neuroinflammation (immunochemistry) (SAH model [1]): reduces systemic neuroinflammation; cerebral blood flow (SAH model [2]): protective benefit for cerebral blood flow showing decreased risk for ischemia
